# Target: T1, CAMK1D (CaMKI delta) (Homo sapiens, UniProt Q8IU85)
# T1 construct: purchased Thermo Fisher Scientific (Life Technologies) SelectScreen
# Assay: SelectScreen Z'LYTE
# Type: biochemical
# Procedure, shortened: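 Percent values come from Thermo SelectScreen profiling of NU5455, combining activity and binding assays. CSF1R was run in Z'LYTE format at Km app ATP, and CAMK1 in Adapta format with ATP listed at 10.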
# T1 sequence (Q8IU85 whole entry): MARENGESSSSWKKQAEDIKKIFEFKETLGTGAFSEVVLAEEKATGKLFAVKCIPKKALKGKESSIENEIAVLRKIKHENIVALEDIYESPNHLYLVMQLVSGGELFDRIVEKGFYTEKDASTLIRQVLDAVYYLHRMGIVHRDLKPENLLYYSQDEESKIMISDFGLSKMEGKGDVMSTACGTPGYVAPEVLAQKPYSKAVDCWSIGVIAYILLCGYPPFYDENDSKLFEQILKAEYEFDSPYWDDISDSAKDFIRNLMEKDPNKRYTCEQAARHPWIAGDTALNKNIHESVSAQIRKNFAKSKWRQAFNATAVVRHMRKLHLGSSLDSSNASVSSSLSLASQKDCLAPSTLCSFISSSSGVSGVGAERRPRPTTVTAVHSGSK
smiles,measurement,value
CN(C(=O)CN1CCOCC1)c1ccc2sc3c(-c4cccc5c(=O)cc(N6CC7CCC(C6)O7)oc45)cccc3c2c1 [NU5455],inhibition at 1 µM,4.1%
